Publication PMC4850295, “Using a Genetically Encoded Sensor to Identify Inhibitors of Toxoplasma gondii Ca^2+ Signaling” (The Journal of Biological Chemistry, 2016)
Values joined by “and” are separate entries in the source; they are usually repeats but may differ in a detail not shown here. Equal values may be shown once.

Tested on: T1, GCaMP5-expressing T. gondii
T1 construct: whole extracellular parasites expressing GCaMP5 Ca2+ sensor
Design: species or system GCaMP5-expressing Toxoplasma gondii, extracellular; GCaMP5 fluorescence (cytosolic Ca2+) after 100 uM zaprinast in compound-pretreated extracellular parasites, background-subtracted, relative to zaprinast alone
Settings: 100 uM zaprinast stimulation, 10 min pretreatment, mean of two replicates, 0.23 h, 10 µM
Procedure, shortened: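 Read-out is GCaMP5 calcium fluorescence (ex 485/em 525 nm) taken 4 min after 100 μM zaprinast at 37 °C, following 10 min compound pretreatment at 10 μM in duplicate biological replicates. Values are basal-subtracted fold change versus zaprinast-only controls; parasites held extracellular in Ringer's solution.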

Row | SMILES | fold change in fluorescence relative to zaprinast alone
1 | COC(=O)Nc1nc2cc(Oc3cccc(NC(=O)Nc4cc(C(F)(F)F)ccc4F)c3)ccc2[nH]1 [GW659386A] | 1.116 and 1.187

Same assay, conditions: 100 uM zaprinast stimulation; 10 min pretreatment; mean of two replicates; 0.23 h

Row | SMILES | fold change in fluorescence relative to zaprinast alone
2 | CNC(=O)c1sc(-n2cnc3cc(OC)c(OC)cc32)cc1OCc1ccccc1C(F)(F)F [GSK1030061A] | 1.028
3 | O=c1cc(N2CCOCC2)nc2n(Cc3cccc(Cl)c3Cl)c3ccccc3n12 [GSK2299009A] | 1.093
4 | COC(=O)Nc1nc2ccc(Oc3ccc(CC(=O)Nc4cc(C(F)(F)F)ccc4F)cc3)cc2[nH]1 [GW680903X] | 1.756
5 | O=C(Nc1n[nH]c2nc(-c3cccs3)c(Br)cc12)C1CC1 [SB-735297] | 1.322
6 | CCn1c(-c2nonc2N)nc2c(N3CCCC3)nccc21 [SB-744941] | 0.961
7 | CCCCCc1nc2c(N)ncnc2n1CCCCC [SKF-97255] | 0.8987
8 | Nc1nccc(-c2c(-c3ccc(F)cc3)ncn2C2CCN(Cc3ccccc3)CC2)n1 [SB-219980] | 0.5084
9 | Cn1cncc1-c1ccc2ncnc(Nc3ccc(OCc4ccccc4)cc3)c2c1 [GW320571X] | 0.8423
10 | N#Cc1cccc(C(=O)NC2CCN(c3ccnc(Nc4ccc(F)cc4)n3)C2)c1 (centres unmarked) [GSK1379708A] | 1.095
11 | O=C(Nc1cccc(-c2nn3ncccc3c2-c2ccnc(Nc3ccccc3)n2)c1)c1c(F)cccc1F [GSK198271A] | 1.278
12 | COc1cc2ncn(-c3cc(OCc4ccccc4C(F)(F)F)c(C(N)=O)s3)c2cc1OC [GW843682X] | 1.213
13 | CCNc1nccc(-c2c(-c3ccc(F)cc3)ncn2C2CCN(C)CC2)n1 [SB-226605] | 0.6067
14 | CN1CCC(n2cnc(-c3ccc(F)cc3)c2-c2ccnc(NC3CCNCC3)n2)CC1 [SB-229482] | 0.6668
15 | NC(=O)Cc1ccccc1Oc1nccc(-c2c(-c3ccc(F)cc3)ncn2C2CCNCC2)n1 [SB-264865] | 1.313
16 | O=C(Nc1n[nH]c2cc(-c3ccco3)ccc12)C1CC1 [SB-737447] | 1.13
17 | CCCC(=O)Nc1[nH]nc2ncc(-c3cccc4ccccc34)cc12 [SB-642057] | 0.9221
18 | Cc1cc(-c2ccnc(Nc3cccc(C#N)c3)n2)cc(C)c1O [GSK1440913A] | 0.3868
19 | CCCNc1cccc(-n2ncc3c(N/N=C/c4ccncc4)ncnc32)c1 [GW794607X] | 0.688
20 | CCN(CC)CCOc1ccc(Nc2ncc3cc(-c4c(Cl)cccc4Cl)c(=O)n(C)c3n2)cc1 [SB-601273] | 0.7002
21 | O=c1[nH]cc(-c2ccc(O)cc2)c2sc(-c3ccncc3)cc12 [GSK1033723A] | 1.385
22 | NC(=O)c1sc(-n2cnc3ccccc32)cc1OCc1ccccc1Br [GSK1023156A] | 0.8843

Row | SMILES | fold change in fluorescence relative to zaprinast alone
23 | COC(=O)Nc1nc2ccc(Oc3ccc(NC(=O)Nc4cc(F)ccc4F)cc3)cc2[nH]1 [GW701424A] | 1.084
24 | Nc1ncnc2c1ncn2-c1cccc(F)c1 [SKF-97560] | 1.042
25 | CS(=O)(=O)c1ccc(-c2nc3n(c2-c2ccncc2)CCC3)cc1 [SKF-105942] | 0.9941
26 | Oc1cc(Nc2ccnc3cc(I)ccc23)ccc1F [GW552771X] | 0.9648
27 | O=C(Nc1cccc(-c2nn3ccccc3c2-c2ccnc(Nc3cccc(F)c3)n2)c1)c1c(F)ccc(F)c1Cl [GSK357952A] | 1.061
28 | O=C(Nc1ccc2c(c1)OCO2)NC1CCN(c2ccnc(NCc3ccc(F)cc3)n2)CC1 [GSK1379859A] | 0.7305
29 | Cc1cccc(-c2nc(C)cc(Nc3ccncc3)n2)n1 [GSK257997A] | 0.832
30 | COc1ccc(-n2cnc3c(N)ncnc32)cc1 [SKF-97236] | 1.027
31 | O=C(Nc1cccc(-c2nn3ncccc3c2-c2ccnc(Nc3cccc(C(F)(F)F)c3)n2)c1)c1c(F)cccc1F [GSK299495A] | 1.22
32 | CCn1c(-c2nonc2N)nc2c(C#CC(C)(C)O)ncc(OCCCCN)c21 [GSK507274A] | 1.063
33 | Cc1ccc(O)cc1Nc1ccnc2cc(-c3ccccn3)ccc12 [GW440139B] | 1.023
34 | COc1cc2ncn(-c3cc(OCc4ccccc4C(F)(F)F)c(C(C)=O)s3)c2cc1OC [GSK1030059A] | 1.158
35 | CS(=O)(=O)CCNCc1nc(-c2ccc3ncnc(Nc4ccc(OCc5cccc(C(F)(F)F)c5)cc4)c3c2)cs1 [GW569530A] | 1.148
36 | Cc1[nH]nc2cc(Nc3ccnc(Nc4cccc(CN5CCOCC5)c4)n3)ccc12 [GW682569X] | 1.452
37 | CC(=O)c1c(-c2ccncc2)[nH]c(-c2ccncc2)c1C [GW493036X] | 1.057
38 | CCn1c(-c2nonc2N)nc2c(C#CC(C)(C)O)nc(O[C@@H](CN)c3ccccc3)cc21 [GSK1007102B] | 1.188
39 | CS(=O)(=O)Cc1ccc(Nc2nccc(-c3c(-c4cccc(NC(=O)c5c(F)cccc5F)c4)nn4ccccc34)n2)cc1 [GSK323543A] | 1.565
40 | O=c1cc(N2CCOCC2)nc2n(Cc3cccc(C(F)(F)F)c3)ccn12 [GSK2297543A] | 0.8956
41 | Cn1cc(-c2ccc3c(c2)CCN3C(=O)Cc2cccc(F)c2)c2c(N)ncnc21 [GSK2603358A] | 1.56
42 | CC(C)Oc1ccc2c(-c3ccnc(Nc4ccc(N5CCN(C)CC5)cc4)n3)cnn2n1 [GW696155X] | 0.6015
43 | COc1ccc2[nH]c3c4[nH]c5ccc(OC)cc5c4c4c(c3c2c1)C(=O)NC4=O [GW296115X] | 0.5167

Row | SMILES | fold change in fluorescence relative to zaprinast alone
44 | COc1ccc2c(-c3ccnc(Nc4cccc(OC(F)(F)F)c4)n3)cnn2n1 [GW810372X] | 0.1756
45 | O=C(c1ccc(-c2cc(-c3cn[nH]c3-c3ccccn3)ccn2)cc1)N1CCOCC1 [GW812171X] | 1.17
46 | COC(=O)Nc1nc2ccc(Oc3ccc(NC(=O)Nc4cc(C(F)(F)F)ccc4F)cc3)cc2n1C [GW692089A] | 1.505
47 | Nc1nc(-c2ccc3c(N)n[nH]c3c2)cc(N2CCCC(NC(=O)c3ccccc3)C2)n1 (centres unmarked) [GSK2286775B] | 1.202
48 | NC[C@H](Cc1ccc(C(F)(F)F)cc1)NC(=O)c1cc(Br)c(-c2ccnc3[nH]ccc23)s1 [GSK1487252A] | 0.4926
49 | COc1cccc(C2=C(N(C)c3ccccc3)C(=O)NC2=O)c1 [SB-334865] | 0.953
50 | COc1cc(Nc2nccc(N3CCC(NC(=O)Nc4cccc(C(C)=O)c4)C3)n2)cc(OC)c1OC (centres unmarked) [GSK1379753A] | 1.391
51 | CS(=O)(=O)CCNCc1ccc(-c2ccc3ncnc(Nc4ccc(OCc5ccccc5)cc4)c3c2)o1 [GW458787A] | 0.4223
52 | COC(=O)Nc1nc2ccc(Oc3ccc(NC(=O)Nc4cc(C(F)(F)F)ccc4F)cn3)cc2[nH]1 [GW681170A] | 1.637
53 | O=C(Nc1n[nH]c2nc(-c3ccccc3O)ccc12)C1CC1 [SB-711880] | 1.267
54 | COc1ccc2ncn(-c3cc(O[C@H](C)c4ccccc4C(F)(F)F)c(C(N)=O)s3)c2c1 [GSK317315A] | 0.7483
55 | N#CCc1ccc(Nc2nccc(Nc3ccc(Oc4ccccc4)cc3)n2)cc1 [GW639905A] | 1.192
56 | c1ccc(Oc2ccc(Nc3ccnc4cc(-c5ccc(CN6CCNCC6)o5)ccc34)cc2)nc1 [GW567142A] | 0.8742
57 | COC(=O)c1cccc(NC(=O)NC2CCN(c3ccnc(Nc4ccc(F)cc4)n3)C2)c1 (centres unmarked) [GSK1379725A] | 0.2001
58 | CCN(CC)Cc1ccc(Nc2nccc(-c3cnn4ncccc34)n2)cc1 [GW780056X] | 0.8961
59 | CNc1nccc(-c2ccc3c(N)n[nH]c3c2)n1 [GSK2206003A] | 1.243
60 | O=C1NC(=O)C(c2cccc(Cl)c2)=C1Nc1ccc(Cl)c(C(=O)O)c1 [SB-409513] | 1.123
61 | COc1cc(Nc2ncc3c(C)nc(-c4cc5ccccc5[nH]4)n3n2)cc(OC)c1OC [GW869516X] | 0.08874
62 | Cc1ccc(NC(=O)Nc2cc(C(C)(C)C)nn2-c2ccccc2)cc1 [GSK1014915A] | 0.9452
